The values below come from article PMC8901748, “A novel prostaglandin E receptor 4 (EP4) small molecule antagonist induces articular cartilage regeneration” (Cell Discovery, 2022).

pIC50: −log10 of the molar value. Where two headings read alike, the source gives them in different places.

Assay [1] deals with articular cartilage defect. Briefly: Microfracture (MF) surgery-induced cartilage defect (CD) rat model. It counts as in vivo, Sprague-Dawley (SD) rats. Particulars: hydrogel containing compound; for Cartilage regeneration, appearance of the defect: 6 weeks of post-surgery. Here is the method:
Ca(NO3)2·4H2O was obtained from Sinopharm Chemical Reagent. Waxy starch (amylopectin more than 90%) was purchased from Qinhuangdao Lihua Starch. For the preparation of starch hydrogels, a fixed water-to-starch mass ratio of 5 was used, and the crosslinker Ca(NO3)2·4H2O was dissolved in the starch solution. The mixture was stirred at 60 °C for 1 h to obtain a viscous gel. The starch hydrogel prepared with Ca(NO3)2·4H2O and Waxy starch was named as 14 Gel. The hydrogel is sterilized by UV for 30 min and then used. HL-43 and Grapiprant were each dissolved in the DMSO solvent (100 mM). Compound/14 Gel was prepared by mixing the solutions at a weight ratio of 1/10 (w/w).
Thirty-six male Sprague-Dawley (SD) rats (280–300 g) were randomized into three groups (each group n = 4 rats for each time point), […] were used as controls (n = 4). After anesthetizing with 3.5% chloral hydrate (10 ml/kg), the rats were fixed on the operating table in supine position and the skin was prepared and disinfected. A 2 cm longitudinal incision along the medial margin of the patella of the right knee was made with a scalpel and then the capsule was open to expose the articular cartilage surface. A manual drill with a diameter of 2 mm was used to drill holes in the femoral intercondylar fossa of the rat (2 mm × 2 mm). After washing with saline, the gauze was pressed and 100 μl 14 Gel containing appropriate drugs or vehicle were injected. After the injection, the compression flexes and compresses were applied several times to spread the gel throughout the knee joint. The ligaments and skin were sutured. After 2, 4, and 6 weeks, the repaired articular cartilage was histologically analyzed and correlation was scored.

Assay [2] relates to primary articular chondrocytes. Put plainly: Cell viability by CCK-8 assay. In kind it is cell-based, mouse. Particulars: 72 h, read-out: IC50 (cell viability, toxicity in chondrocytes). The method, then: The cell viability was evaluated by CCK-8 assay (Dojindo Molecular Technologies). Primary chondrocytes were plated in the 96-well plates and treated with the EP4 antagonists or DMSO for 72 h. A total of 10 μl CCK-8 was added to each well, the cells were incubated in the presence of CCK-8 for 2–3 h. The optical density (OD) of each well at 450 nm was recorded on a Microplate Reader (SPECTRA MAX190). The absorbance values were normalized by subtracting blank values of […]. The cell viability (% of control) is calculated as the percentage of (ODtest − ODblank)/(ODcontrol − ODblank). The 50% inhibitory concentration (IC50) was calculated with GraphPad Prism software using the sigmoidal dose-response function.
(§1) ATDC5 cell line was purchased from Riken BioResource Center (Tsukuba, Japan) and grown in a 1:1 mixture of DMEM/F12 medium (Corning, 10-092-CVR) supplemented with 5% fetal bovine serum (Gibco, 10099, USA) and 1% penicillin-streptomycin solution (Life Technologies). Cells were maintained at 37 °C under 5% CO2. Primary chondrocytes were obtained from knee joint cartilage of newborn mice. Knee joints were dissected from the tibia plateau and femoral condyle articular cartilage of mouse pups and digested in 0.1% collagenase type II (Sigma) overnight at 37 °C and chondrocytes were harvested by centrifugation. Primary chondrocytes were cultured at a density of 5 × 10^3 cells per ml at 37 °C with 5% CO2. DMEM/F12 medium with 10% fetal bovine serum (FBS) and 1% penicillin–streptomycin was used to culture the primary chondrocytes. Chondrogenic differentiation were induced with chondrogenic medium, which contains insulin-transferrin-selenium (ITS) (Sigma, I3146), 10 ng/ml TGF-β3 (PEPROTECH, 100-36E, USA), 100 nM Dexamethasone (Sigma, D4902), 50 μg/ml VC (Sigma), 1 mM sodium pyruvate (Sigma) and 40 μg/ml proline (Sigma), and/or treatment with rmIL-1β (R&D, 401-ML/CF), TNFα (PEPROTECH, 300-01A-50) in DMEM/F12 for indicated days. Western blotting was performed according to standard protocols. Antibodies used were: rabbit anti-Mmp3 (1:1000, HuaBio), rabbit anti-Mmp13 (1:500, abcam, ab39012), rabbit anti-p-CREB (1:2000, Cell Signaling Technology, 87G3), rabbit anti-CREB (1:2000, Cell Signaling Technology, 48H2), mouse anti-GAPDH (1:5000; Sigma-Aldrich, G8795), rabbit anti-Col2 (Abcam, Ab34712), rabbit anti-STAT3 (1:2000; Abcam, ab68153), rabbit anti-p-STAT3 (Y705) (1:2000; Abcam, ab76315), rabbit anti -p65 (1:1000; CST, 3034), rabbit anti-p-p65 (1:1000; CST, 3033), and rabbit anti-IκBα (1:1000; Abways, CY5026).
(In general: Tetrazolium dyes change colour on reduction, which living cells bring about.)

The test system of assay [3] is Mmp3, Mmp13, Col2, p-CREB, p-STAT3, p-p65, IκBα in primary mouse chondrocytes. Briefly: Western blotting in primary articular chondrocytes. It counts as cell-based. The method, then:
as §1
Background: A western blot detects proteins with antibodies after separation by electrophoresis.

Another assay has as its system STAT-Luc in ATDC5 cells. Put plainly: STAT-Luc luciferase reporter assay. To be noted: 2 ng/ml IL-1β, 30 μM HL-43, 6 h. In kind it is cell-based, mouse. The method, then:
(§2) Six firefly luciferase reporters were used in the Luciferase assay, including CRE-Luc (PathDetect CRE cis-Reporting System; Stratagene, La Jolla CA) driven by a basic promoter (TATA box) plus four repeats of CRE; Sox9 promoter-Luc contains human SOX9 proximal promoter region (−1034 bp to +67 bp)[45]; 4 × 48-p89-Luc, mouse Col2a1 minimal promoter. AP-1-Luc, Nf-κb-Luc, STAT-Luc were obtained from Stratagene. Chondrocytes were cultured in 24-well plates and 300 ng firefly luciferase reporter constructs were transiently transfected using transfection reagent TransExellent-DNA (Cenji Biotech Inc, China) following manufacturer’s instruction, and 15 ng of the Copia-Renilla luciferase reporter was co-transfected as a normalization control. Cells were treated with the indicated reagents for 48 h after transfection. The Dual-Luciferase measurements were performed in triplicate using the Luciferase assay kit (Promega) and a LUMIstar Omega luminometer (BMG Labtech, Mornington, Australia).

Another assay concerns Nf-κb-Luc in ATDC5 cells. Briefly: NF-κB-Luc luciferase reporter assay. To be noted: 2 ng/ml IL-1β, 30 μM HL-43, 6 h. In kind it is cell-based, mouse. The method, then: as §2
For orientation: In a reporter assay the amount or activity of a reporter protein is the signal.

The pIC50 is −log10 of the IC50, conventionally taken in molar units. Regarding `CCc1nc2c(C)nc(C)cc2n1-c1ccc(CCNC(=O)NS(=O)(=O)c2ccc(C)cc2)cc1` [Grapiprant], in assay [1], the “Cartilage regeneration, appearance of the defect” value is listed as “still visible”. Besides, the negative logarithm of the IC50 (pIC50) in assay [2] (Mus musculus, Chondrocyte) is 3.95.

For `C[C@H](NC(=O)c1c(-c2ccccc2)nnn1CCOc1ccc(F)cc1)c1ccc(C(=O)O)cc1` [HL-43], the “Cartilage repair, ICRS Macroscopic and ICRS Visual Histological scores” value in assay [1] (4 weeks after MF surgery) is given as “mild effects on cartilage repair”. For the same molecule, the “Cartilage regeneration, appearance of the defect” value in assay [1] is “surfaces were smooth and cartilage layers were regenerated”. Also, the “Phosphorylation of CREB by Western blotting” value in assay [3] (chondrocytes, 2 ng/ml IL-1β, 100 nM PGE2, 1 h) was “enhanced by HL-43 in a dose-dependent manner”. Further, the “Mmp3/13 expression by Western blotting” value in assay [3] (primary articular chondrocytes, 1 ng/ml IL-1β, 24 h) is “downregulated Mmp3/13 expression in a dose-dependent manner”. Moreover, the “Phosphorylation of STAT3” value in assay [3] (primary mouse articular chondrocytes, 2 ng/ml IL-1β, 1 h) is “reduced the phosphorylation of STAT3”. In addition, in assay [3] (primary mouse articular chondrocytes, IL-1β, 30 μM HL-43, 1 h), the “Phosphorylation of p65 and degradation of IκBα” value is on record as “little effects”. For the same molecule, the “Col2 expression by Western blotting” value in assay [3] (primary mouse chondrocytes, 24 h) is given as “dose-dependently induced Col2 expression”. The “STAT luciferase reporter activity” value in the assay on STAT-Luc in ATDC5 cells is “significantly inhibited”. Moreover, the “NF-κB luciferase reporter activity” value with Nf-κb-Luc in ATDC5 cells is “not AP-1 or NF-κB”. Moreover, in assay [2], the pIC50 is under 3.00.
